Reference: patent US7388017B2, “Inhibitors of serine proteases, particularly hepatitis C virus NS3 protease” (Vertex Pharmaceuticals Incorporated, priority 1996, dated 2008)
Where two headings read alike, the source gives them in different places. Starred links: 1 amine or outer side, 2 acyl side, 3 side chain; linkers in the order of their positions; H or OH if unused. Non-standard residues stand in square brackets, D forms with d. Residues, ends and D or L forms follow the SMILES beside them. Groups on a side chain read outwards from the residue. *: point of attachment. NH(1,3-benzodioxol-5-yl) = c1cc2c(cc1N*)OCO2; X19 = O=[N+]([O-])c1cc(N*)ccc1N1CCCCC1; Pyrazinecarbonyl = O=C(c1cnccn1)*; X30 = O=[N+]([O-])c1cccc(N*)c1; pNA = O=[N+]([O-])c1ccc(N*)cc1; X28 = c1ccc(Oc2cccc(N*)c2)cc1; Hyp = O=C(O)[CH]1C[CH](O)CN1; NH(3-MeOPh) = COc1cccc(N*)c1; X3 = c1ccc(-c2ccccc2N*)cc1; 3Abz = Nc1cccc(C(=O)O)c1; X18 = CC(=O)c1cccc(N*)c1; X39 = CC(=O)c1ccc(N*)cc1; X43 = Clc1cc(N*)cc(Cl)n1; X17 = c1nc2ccc(N*)cc2s1; X9 = COc1ccc(OC)c(N*)c1; 2Abz = Nc1ccccc1C(=O)O; X14 = Clc1ccc(N*)cc1Cl; X46 = Clc1cccc(Cl)c1N*; Abu = CC[CH](N)C(=O)O; X34 = N#Cc1cccc(N*)c1; X38 = CC(C)c1ccccc1N*; CO = O=C([*:1])[*:2]; NHBn = c1ccc(CN*)cc1; X47 = COc1ccccc1N*

Target: T1, HCV NS3 protease (Hepatitis C virus genotype 1a, UniProt P27958)
T1 construct: more particularly HCV NS3 proteases
T1 sequence (P27958 1027-1208): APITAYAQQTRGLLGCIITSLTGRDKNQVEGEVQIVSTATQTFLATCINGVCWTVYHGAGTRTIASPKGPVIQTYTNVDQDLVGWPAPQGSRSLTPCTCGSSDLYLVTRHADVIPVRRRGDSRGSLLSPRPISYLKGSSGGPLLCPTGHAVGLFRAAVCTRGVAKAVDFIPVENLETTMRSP
Test: Enzyme inhibition of HCV NS3 serine protease (cleavage of peptide substrate / EDVV AbuC-p-nitroanilide, with or without NS4A)
Type: biochemical
Experimental: Cleavage reactions were quenched by the addition of an equal volume of a mixture of 10% TFA:acetonitrile (1:1) and activity was assessed on a reversed phase HPLC column (Rainin C18 Microsorb-MV, […], 4.6×250 mm; 0-50% acetonitrile, 0.1% TFA@ 3.33% min) using a Hewlett Packard 1050 instrument with auto-injection and diode array detection at 210 nm and 280 nm (where appropriate). Peptide elution fragments were collected and identified by mass spectrometry and N-terminal sequence analysis. Fragment identity and concentration was further verified by authentic, synthesized products. Initial rates of cleavage were determined at <20% substrate conversion and catalytic parameters were determined assuming Michaelis-Menten kinetics using the MultiFit program (Day Computing, Cambridge, Mass.).
Spectrophotometric assays were run in a 96-well microtiter plate at 30 C, using a SpectraMax 250 reader (Molecular Devices, Sunnyvale, Calif.) with kinetic capability. Cleavage of EDVV AbuC-p-nitroanilide (5A-pNA) substrate was performed with or without […] in the same buffer used for HPLC assays at 30 C, and pNA release was monitored at 405 nm. The extinction-coefficient of p-nitroaniline is independent of pH at values of 5.5. and above [Tuppy, H., et al., Hoppe-Seyler's Z. Physiol. Chem., 329, pp. 278-288 (1962)]; Raybuck and Luong, unpublished observations).
Kinetic constants for the rapid equilibrium ordered bisubstrate reaction were determined from rate vs [4A], [EDVV AbuC-pNA] data by non-linear least squares fitting to equation 1 [Morrison, J. F. Biochim. Biophys. Acta, 185, pp. 269-286 (1969)] as described in the text. Kii and Kis values for peptidyl inhibitors were determined from rate vs [inhibitor], [substrate] data and fitting to the equation for mixed inhibition: rate=Vmax[S]/{Km(1+[I]/Kis)+[S](1+[I]/Kii)} The commercial program KinetAsyst (StateCollege, Pa.) was used for both procedures. Ki values were calculated from rate vs [inhibitor] plots by a nonlinear least squares fit of the data to the equation of Morrison for tight binding competitive inhibition [Morrison, J. F. Biochim. Biophys. Acta, 185, pp. 269-286 (1969)]. The KineTic program (BioKin Ltd) was used for this procedure.
Ki values are expressed in μM. Category “A” indicates <1 μM inhibition; category “B” indicates 1-100 μM inhibition; category “C” indicates >100 μM.

[1] = Enzyme inhibition data, Ki from rate vs [inhibitor] plots, Morrison tight binding competitive inhibition fit, 30 C, pH 7.8, read-out: Ki

SMILES	Ki [1] [µM]	Ki [µM]
CCC(C=O)NC(=O)C1CC(OC(=O)Nc2ccc(N3CCCCC3)c([N+](=O)[O-])c2)CN1C(=O)C(NC(=O)C(NC(=O)c1cnccn1)C(C)C)C(C)C (stereo not shown) [Compound 34] (Pyrazinecarbonyl-VV[Hyp]([CO-X19])[Abu]-aldehyde; configuration not given here)	1 to 100	
CCC(C=O)NC(=O)C1CC(OC(=O)Nc2ccc3ncsc3c2)CN1C(=O)C(NC(=O)C(NC(=O)c1cnccn1)C(C)C)C(C)C (stereo not shown) [Compound 35] (Pyrazinecarbonyl-VV[Hyp]([CO-X17])[Abu]-aldehyde; configuration not given here)	1 to 100	
CCC(C=O)NC(=O)C1CC(OC(=O)Nc2cccc(C(C)=O)c2)CN1C(=O)C(NC(=O)C(NC(=O)c1cnccn1)C(C)C)C(C)C (stereo not shown) [Compound 36] (Pyrazinecarbonyl-VV[Hyp]([CO-X18])[Abu]-aldehyde; configuration not given here)	> 100	
CCC(C=O)NC(=O)C1CC(OC(=O)Nc2ccc(C(C)=O)cc2)CN1C(=O)C(NC(=O)C(NC(=O)c1cnccn1)C(C)C)C(C)C (stereo not shown) [Compound 37] (Pyrazinecarbonyl-VV[Hyp]([CO-X39])[Abu]-aldehyde; configuration not given here)	1 to 100	
CCC(C=O)NC(=O)C1CC(OC(=O)Nc2cccc(C#N)c2)CN1C(=O)C(NC(=O)C(NC(=O)c1cnccn1)C(C)C)C(C)C (stereo not shown) [Compound 38] (Pyrazinecarbonyl-VV[Hyp]([CO-X34])[Abu]-aldehyde; configuration not given here)	1 to 100	
CCC(C=O)NC(=O)C1CC(OC(=O)Nc2ccc([N+](=O)[O-])cc2)CN1C(=O)C(NC(=O)C(NC(=O)c1cnccn1)C(C)C)C(C)C (stereo not shown) [Compound 39] (Pyrazinecarbonyl-VV[Hyp]([CO-pNA])[Abu]-aldehyde; configuration not given here)	1 to 100	
CCC(C=O)NC(=O)C1CC(OC(=O)Nc2cccc([N+](=O)[O-])c2)CN1C(=O)C(NC(=O)C(NC(=O)c1cnccn1)C(C)C)C(C)C (stereo not shown) [Compound 40] (Pyrazinecarbonyl-VV[Hyp]([CO-X30])[Abu]-aldehyde; configuration not given here)	1 to 100	
CCC(C=O)NC(=O)C1CC(OC(=O)Nc2cc(OC)ccc2OC)CN1C(=O)C(NC(=O)C(NC(=O)c1cnccn1)C(C)C)C(C)C (stereo not shown) [Compound 41] (Pyrazinecarbonyl-VV[Hyp]([CO-X9])[Abu]-aldehyde; configuration not given here)	1 to 100	
CCC(C=O)NC(=O)C1CC(OC(=O)Nc2cccc(OC)c2)CN1C(=O)C(NC(=O)C(NC(=O)c1cnccn1)C(C)C)C(C)C (stereo not shown) [Compound 42] (Pyrazinecarbonyl-VV[Hyp]([CO-NH(3-MeOPh)])[Abu]-aldehyde; configuration not given here)	1 to 100	
CCC(C=O)NC(=O)C1CC(OC(=O)Nc2ccccc2OC)CN1C(=O)C(NC(=O)C(NC(=O)c1cnccn1)C(C)C)C(C)C (stereo not shown) [Compound 43] (Pyrazinecarbonyl-VV[Hyp]([CO-X47])[Abu]-aldehyde; configuration not given here)	1 to 100	
CCC(C=O)NC(=O)C1CC(OC(=O)Nc2ccc3c(c2)OCO3)CN1C(=O)C(NC(=O)C(NC(=O)c1cnccn1)C(C)C)C(C)C (stereo not shown) [Compound 44] (Pyrazinecarbonyl-VV[Hyp]([CO-NH(1,3-benzodioxol-5-yl)])[Abu]-aldehyde; configuration not given here)	1 to 100	
CCC(C=O)NC(=O)C1CC(OC(=O)Nc2c(Cl)cccc2Cl)CN1C(=O)C(NC(=O)C(NC(=O)c1cnccn1)C(C)C)C(C)C (stereo not shown) [Compound 45] (Pyrazinecarbonyl-VV[Hyp]([CO-X46])[Abu]-aldehyde; configuration not given here)	1 to 100	
CCC(C=O)NC(=O)C1CC(OC(=O)Nc2ccc(Cl)c(Cl)c2)CN1C(=O)C(NC(=O)C(NC(=O)c1cnccn1)C(C)C)C(C)C (stereo not shown) [Compound 46] (Pyrazinecarbonyl-VV[Hyp]([CO-X14])[Abu]-aldehyde; configuration not given here)	1 to 100	
CCC(C=O)NC(=O)C1CC(OC(=O)NCc2ccccc2)CN1C(=O)C(NC(=O)C(NC(=O)c1cnccn1)C(C)C)C(C)C (stereo not shown) [Compound 50] (Pyrazinecarbonyl-VV[Hyp]([CO-NHBn])[Abu]-aldehyde; configuration not given here)	1 to 100	
CCC(C=O)NC(=O)C1CC(OC(=O)Nc2cc(Cl)nc(Cl)c2)CN1C(=O)C(NC(=O)C(NC(=O)c1cnccn1)C(C)C)C(C)C (stereo not shown) [Compound 51] (Pyrazinecarbonyl-VV[Hyp]([CO-X43])[Abu]-aldehyde; configuration not given here)	1 to 100	
CCC(C=O)NC(=O)C1CC(OC(=O)Nc2ccccc2-c2ccccc2)CN1C(=O)C(NC(=O)C(NC(=O)c1cnccn1)C(C)C)C(C)C (stereo not shown) [Compound 52] (Pyrazinecarbonyl-VV[Hyp]([CO-X3])[Abu]-aldehyde; configuration not given here)	1 to 100	
CCC(C=O)NC(=O)C1CC(OC(=O)Nc2cccc(Oc3ccccc3)c2)CN1C(=O)C(NC(=O)C(NC(=O)c1cnccn1)C(C)C)C(C)C (stereo not shown) [Compound 53] (Pyrazinecarbonyl-VV[Hyp]([CO-X28])[Abu]-aldehyde; configuration not given here)	1 to 100	

SMILES	Ki [1] [µM]	Ki [µM]
CCC(C=O)NC(=O)C1CC(OC(=O)Nc2ccccc2C(C)C)CN1C(=O)C(NC(=O)C(NC(=O)c1cnccn1)C(C)C)C(C)C (stereo not shown) [Compound 54] (Pyrazinecarbonyl-VV[Hyp]([CO-X38])[Abu]-aldehyde; configuration not given here)	1 to 100	
CCC(C=O)NC(=O)C1CC(OC(=O)Nc2ccccc2C(=O)OC)CN1C(=O)C(NC(=O)C(NC(=O)c1cnccn1)C(C)C)C(C)C (stereo not shown) [Compound 55] (Pyrazinecarbonyl-VV[Hyp]([CO-2Abz-OMe])[Abu]-aldehyde; configuration not given here)	1 to 100	
CCOC(=O)c1cccc(NC(=O)OC2CC(C(=O)NC(C=O)CC)N(C(=O)C(NC(=O)C(NC(=O)c3cnccn3)C(C)C)C(C)C)C2)c1 (stereo not shown) [Compound 56] (Pyrazinecarbonyl-VV[Hyp]([CO-3Abz-OEt])[Abu]-aldehyde; configuration not given here)	> 100	
CCC(C=O)NC(=O)C1CC(NC(=O)c2ccc(Cl)c(Cl)c2)CN1C(=O)C(NC(=O)C(NC(=O)c1cnccn1)C(C)C)C(C)C (stereo not shown) [Compound 57]	1 to 100	
CCC(C=O)NC(=O)C1CC(NC(=O)NCc2ccccc2)CN1C(=O)C(NC(=O)C(NC(=O)c1cnccn1)C(C)C)C(C)C (stereo not shown) [Compound 58]	1 to 100	
CCC(C=O)NC(=O)C1CC(NC(=O)N2CCOCC2)CN1C(=O)C(NC(=O)C(NC(=O)c1cnccn1)C(C)C)C(C)C (stereo not shown) [Compound 59]	1 to 100	
CCC(C=O)NC(=O)C1CC(NC(=O)OCc2ccccc2)CN1C(=O)C(NC(=O)C(NC(=O)c1cnccn1)C(C)C)C(C)C (stereo not shown) [Compound 60]	> 100	
C=CCOC(=O)NC1CC(C(=O)NC(C=O)CC)N(C(=O)C(NC(=O)C(NC(=O)c2cnccn2)C(C)C)C(C)C)C1 (stereo not shown) [Compound 61]	> 100	
CCC(C=O)NC(=O)C1CC(NC(=O)c2ccccc2)CN1C(=O)C(NC(=O)C(NC(=O)c1cnccn1)C(C)C)C(C)C (stereo not shown) [Compound 62]	1 to 100	
CCC(C=O)NC(=O)C1CC(NC(=O)CCc2ccccc2)CN1C(=O)C(NC(=O)C(NC(=O)c1cnccn1)C(C)C)C(C)C (stereo not shown) [Compound 63]	1 to 100	
CCC(C=O)NC(=O)C1CC(NC(=O)C(=O)c2ccccc2)CN1C(=O)C(NC(=O)C(NC(=O)c1cnccn1)C(C)C)C(C)C (stereo not shown) [Compound 64]	1 to 100	
CCC(C=O)NC(=O)C1CC(NS(=O)(=O)Cc2ccccc2)CN1C(=O)C(NC(=O)C(NC(=O)c1cnccn1)C(C)C)C(C)C (stereo not shown) [Compound 65]	1 to 100	
CCC(C=O)NC(=O)C1CC(NCc2ccccc2)CN1C(=O)C(NC(=O)C(NC(=O)c1cnccn1)C(C)C)C(C)C (stereo not shown) [Compound 67]	> 100	
CCC(NC(=O)C1CC(OCc2ccc(Cl)c(Cl)c2)CN1C(=O)C(NC(=O)C(NC(=O)c1cnccn1)C(C)C)C(C)C)P(=O)(Oc1ccccc1)Oc1ccccc1 (stereo not shown) [Compound 71]		< 1
CCC(NC(=O)C1CC(OCc2ccc3ccccc3c2)CN1C(=O)C(NC(=O)C(NC(=O)c1cnccn1)C(C)C)C(C)C)P(=O)(Oc1ccccc1)Oc1ccccc1 (stereo not shown) [Compound 72]		1 to 100
CCC(NC(=O)C1CC(OCc2ccccc2)CN1C(=O)C(NC(=O)C(NC(=O)c1cnccn1)C(C)C)C(C)C)P(=O)(Oc1ccccc1)Oc1ccccc1 (stereo not shown) [Compound 73]		1 to 100
CCC(NC(=O)C1CC(OCc2ccccc2)CN1C(=O)C(NC(=O)C(NC(=O)c1cnccn1)C(C)C)C(C)C)C(=O)C(F)(F)C(F)(F)F (stereo not shown) [Compound 75]	1 to 100	
